Measured values as given in the NIST ThermoML archive (doi:10.1016/j.jct.2011.05.003).

Assay: xn = mol fraction of the nth substance listed
Conditions: Liquid; for speed of sound: 101 kPa, Sing-around technique in a fixed-path interferometer; for mass density: 101.3 kPa, Vibrating tube method

CCCCCC(C)=O [2-heptanone] + CCN(CC)CC
Conditions | mass density [kg/m3] | speed of sound [m/s]
293.15 K, x1 = 0.0636 | 733.182 | 1141.8
293.15 K, x1 = 0.1061 | 737.185 | 1148.4
293.15 K, x1 = 0.1585 | 741.934 | 1156
293.15 K, x1 = 0.2077 | 746.426 | 1163.5
293.15 K, x1 = 0.2536 | 750.6 | 1170.4
293.15 K, x1 = 0.3091 | 755.621 | 1178.7
293.15 K, x1 = 0.3614 | 760.322 | 1186.6
293.15 K, x1 = 0.4043 | 764.18 | 1193.1
293.15 K, x1 = 0.4621 | 769.325 | 1201.9
293.15 K, x1 = 0.5022 | 772.887 | 1208
293.15 K, x1 = 0.5577 | 777.79 | 1216.3
293.15 K, x1 = 0.6078 | 782.199 | 1223.9
293.15 K, x1 = 0.6604 | 786.734 | 1231.8
293.15 K, x1 = 0.7001 | 790.167 | 1237.8
293.15 K, x1 = 0.749 | 794.387 | 1245
293.15 K, x1 = 0.7968 | 798.46 | 1252.1
293.15 K, x1 = 0.8517 | 803.051 | 1260.2
293.15 K, x1 = 0.9008 | 807.18 | 1267.3
293.15 K, x1 = 0.9507 | 811.366 | 1274.7
298.15 K, x1 = 0.0574 | 727.994 | 1119.4
298.15 K, x1 = 0.105 | 732.47 | 1126.8
298.15 K, x1 = 0.1619 | 737.667 | 1135.5
298.15 K, x1 = 0.2068 | 741.77 | 1142.1
298.15 K, x1 = 0.2598 | 746.582 | 1150.2
298.15 K, x1 = 0.3075 | 750.925 | 1157.5
298.15 K, x1 = 0.3578 | 755.443 | 1165.2
298.15 K, x1 = 0.4081 | 759.984 | 1172.9
298.15 K, x1 = 0.4548 | 764.166 | 1180.1
298.15 K, x1 = 0.5032 | 768.476 | 1187.5
298.15 K, x1 = 0.5545 | 773.017 | 1195.4
298.15 K, x1 = 0.6103 | 777.928 | 1204
298.15 K, x1 = 0.6579 | 782.088 | 1211.3
298.15 K, x1 = 0.6994 | 785.697 | 1217.6
298.15 K, x1 = 0.7484 | 789.941 | 1225.1
298.15 K, x1 = 0.8031 | 794.633 | 1233.3
298.15 K, x1 = 0.8576 | 799.228 | 1241.5
298.15 K, x1 = 0.9014 | 802.909 | 1247.9
298.15 K, x1 = 0.9462 | 806.662 | 1254.6
303.15 K, x1 = 0.0612 | 723.838 | 1100.1
303.15 K, x1 = 0.1056 | 727.95 | 1106.8
303.15 K, x1 = 0.1602 | 732.935 | 1115.1
303.15 K, x1 = 0.2068 | 737.166 | 1122.2
303.15 K, x1 = 0.2606 | 742.09 | 1130.5
303.15 K, x1 = 0.3086 | 746.453 | 1137.9
303.15 K, x1 = 0.3583 | 750.968 | 1145.7
303.15 K, x1 = 0.4082 | 755.492 | 1153.5
303.15 K, x1 = 0.4553 | 759.737 | 1160.8
303.15 K, x1 = 0.5042 | 764.098 | 1168.4
303.15 K, x1 = 0.5983 | 772.43 | 1183.1
303.15 K, x1 = 0.6536 | 777.279 | 1191.6
303.15 K, x1 = 0.7031 | 781.622 | 1199.3
303.15 K, x1 = 0.7452 | 785.267 | 1205.8
303.15 K, x1 = 0.8088 | 790.717 | 1215.5
303.15 K, x1 = 0.8489 | 794.102 | 1221.5
303.15 K, x1 = 0.9007 | 798.491 | 1229.2
303.15 K, x1 = 0.9503 | 802.71 | 1235.8

CCCNCCC [dipropylamine] + CCCCCC(C)=O
Conditions | mass density [kg/m3] | speed of sound [m/s]
293.15 K, x2 = 0.0603 | 743.175 | 1213.9
293.15 K, x2 = 0.1045 | 746.717 | 1217.2
293.15 K, x2 = 0.1559 | 750.817 | 1221
293.15 K, x2 = 0.2013 | 754.413 | 1224.3
293.15 K, x2 = 0.2526 | 758.468 | 1228.1
293.15 K, x2 = 0.2936 | 761.7 | 1231.1
293.15 K, x2 = 0.3492 | 766.042 | 1235.2
293.15 K, x2 = 0.4579 | 774.494 | 1243
293.15 K, x2 = 0.493 | 777.204 | 1245.6
293.15 K, x2 = 0.5494 | 781.554 | 1249.6
293.15 K, x2 = 0.5894 | 784.624 | 1252.6
293.15 K, x2 = 0.6478 | 789.087 | 1256.9
293.15 K, x2 = 0.6896 | 792.266 | 1259.9
293.15 K, x2 = 0.7615 | 797.717 | 1265.1
293.15 K, x2 = 0.8025 | 800.833 | 1268
293.15 K, x2 = 0.8139 | 801.69 | 1268.8
293.15 K, x2 = 0.8993 | 808.079 | 1275
293.15 K, x2 = 0.948 | 811.684 | 1278.4
298.15 K, x2 = 0.0521 | 738.054 | 1191.8
298.15 K, x2 = 0.1048 | 742.273 | 1196
298.15 K, x2 = 0.1557 | 746.324 | 1199.8
298.15 K, x2 = 0.2 | 749.853 | 1203.2
298.15 K, x2 = 0.2526 | 754.005 | 1207.1
298.15 K, x2 = 0.2962 | 757.449 | 1210.4
298.15 K, x2 = 0.3436 | 761.173 | 1213.9
298.15 K, x2 = 0.385 | 764.422 | 1217
298.15 K, x2 = 0.4478 | 769.307 | 1221.7
298.15 K, x2 = 0.5427 | 776.662 | 1228.8
298.15 K, x2 = 0.6003 | 781.222 | –
298.15 K, x2 = 0.6436 | 784.41 | 1236.4
298.15 K, x2 = 0.69 | 787.95 | 1239.8
298.15 K, x2 = 0.7418 | 791.892 | 1243.6
298.15 K, x2 = 0.8061 | 796.768 | 1248.5
298.15 K, x2 = 0.8548 | 800.432 | 1252
298.15 K, x2 = 0.8993 | 803.773 | 1255.3
298.15 K, x2 = 0.9528 | 807.724 | 1259.1
303.15 K, x2 = 0.0578 | 733.883 | 1172.1
303.15 K, x2 = 0.1054 | 737.733 | 1175.8
303.15 K, x2 = 0.1579 | 741.943 | 1179.9
303.15 K, x2 = 0.2005 | 745.356 | 1183.2
303.15 K, x2 = 0.2497 | 749.277 | 1187.1
303.15 K, x2 = 0.2951 | 752.865 | 1190.6
303.15 K, x2 = 0.3476 | 756.998 | 1194.7
303.15 K, x2 = 0.3856 | 759.993 | 1197.7
303.15 K, x2 = 0.4504 | 765.062 | 1202.6
303.15 K, x2 = 0.5442 | 772.346 | 1209.8
303.15 K, x2 = 0.5891 | 775.815 | 1213.4
303.15 K, x2 = 0.642 | 779.872 | 1217.3
303.15 K, x2 = 0.687 | 783.319 | 1220.8
303.15 K, x2 = 0.7413 | 787.465 | 1225
303.15 K, x2 = 0.7994 | 791.897 | 1229.4
303.15 K, x2 = 0.8564 | 796.191 | 1233.7
303.15 K, x2 = 0.8993 | 799.423 | 1236.9
303.15 K, x2 = 0.9497 | 803.188 | 1240

CCCCNCCCC [dibutylamine] + CCCCCC(C)=O
Conditions | mass density [kg/m3] | speed of sound [m/s]
293.15 K, x2 = 0.064 | 762.405 | 1261.7
293.15 K, x2 = 0.1633 | 767.21 | 1263
293.15 K, x2 = 0.2061 | 769.239 | 1263.4
293.15 K, x2 = 0.2606 | 772.046 | 1264.5
293.15 K, x2 = 0.4493 | 781.952 | 1267.8
293.15 K, x2 = 0.5094 | 785.255 | 1269.1
293.15 K, x2 = 0.644 | 792.949 | 1272.1
293.15 K, x2 = 0.7511 | 799.387 | 1274.7
293.15 K, x2 = 0.9018 | 808.899 | 1278.8
298.15 K, x2 = 0.0624 | 758.343 | 1241.7
298.15 K, x2 = 0.1107 | 760.603 | 1242.2
298.15 K, x2 = 0.2097 | 765.511 | 1243.8
298.15 K, x2 = 0.3613 | 773.119 | 1246.3
298.15 K, x2 = 0.4049 | 775.426 | 1247.1
298.15 K, x2 = 0.4499 | 777.849 | 1248
298.15 K, x2 = 0.5496 | 783.354 | 1250.2
298.15 K, x2 = 0.6482 | 789.026 | 1252.5
298.15 K, x2 = 0.7509 | 795.166 | 1255.1
298.15 K, x2 = 0.7987 | 798.112 | 1256.4
298.15 K, x2 = 0.8986 | 804.449 | 1259.3
298.15 K, x2 = 0.9488 | 807.773 | 1261
303.15 K, x2 = 0.1122 | 756.507 | 1223.3
303.15 K, x2 = 0.1605 | 758.79 | 1223.9
303.15 K, x2 = 0.2587 | 763.614 | 1225.3
303.15 K, x2 = 0.3597 | 768.787 | 1227.2
303.15 K, x2 = 0.4096 | 771.421 | 1228.2
303.15 K, x2 = 0.4986 | 776.259 | 1230.1
303.15 K, x2 = 0.6478 | 784.736 | 1233.7
303.15 K, x2 = 0.747 | 790.673 | 1236.3
303.15 K, x2 = 0.7997 | 793.928 | 1237.9
303.15 K, x2 = 0.852 | 797.226 | 1239.4
303.15 K, x2 = 0.8984 | 800.193 | 1240.8
